Earlier results, collected in patent publication US20180140592A1, “5-CHLORO-4-HYDROXY-1-METHYL-2-OXO-N-PHENYL-1,2-DIHYDROQUINOLINE-3-CARBOXAMIDE, SALTS AND USES THEREOF” (Teva Pharmaceutical Industries, Ltd., priority 2010, published 2018).

Columns and labels:
[1] = system: acute experimental autoimmune encephalomyelitis (aEAE) model; details: U.S. Pat. No. 6,077,851
[2] = system: relapsing MS; details: Polman et al. 2005
[3] = system: experimental inflammatory/autoimmune animal models; details: EAE, DSS induced colitis, NOD mice, EAN, SLE and others

CCN(C(=O)c1c(O)c2c(Cl)cccc2n(C)c1=O)c1ccccc1 [Laquinimod, N-ethyl-N-phenyl-1,2-dihydro-4-hydroxy-5-chloro-1-methyl-2-oxoquinoline-3-carboxamide]
efficacy in the aEAE model [1]: effective
development of active MRI lesions [2]: reduce development of active MRI lesions
therapeutic effect in animal models [3]: demonstrated therapeutic effect
